Laboratory results as given in patent US20150374709A1, “TETRA-SUBSTITUTED NDGA DERIVATIVES VIA ETHER BONDS AND CARBAMATE BONDS AND THEIR SYNTHESIS AND PHARMACEUTICAL USE” (ERIMOS PHARMACEUTICALS LLC, priority 2006, published 2015).
pIC50: −log10 of the molar value.

Legend:
Type in all cases: cell-based
[1] = tested on: HeLa (cervical adenocarcinoma); assay: MTS cell viability assay, HeLa; conditions: Homo sapiens, HeLa, MTS assay; read-out: HeLa IC50
From the text: Studies performed regarding cytotoxicity included the well-known MTS, Trypan Blue and MTT protocols. The MTS studies were done using the CellTiter 96®AQueous One Solution Cell Proliferation Assay (Promega Corporation, Madison, Wis. USA). Metabolically active, namely viable, cells turn MTS, a tetrazolium compound (3-(4,5-dimethylthiazol-2-yl)-5-(3-carboxymethoxyphenyl)-2-(4-sulfophenyl)-2H-tetrazolium, inner salt) into colored formazan, which is soluble in tissue culture medium. The measurement of the absorbance of the formazan is read at 490 nm. The ready to use reagent is added directly to the cells in media in 96-well plates, incubated 1-4 hours and the results are recorded by the plate reader. The IC50 is estimated by graphing the gathered data. The IC50 is the concentration of the tested material that inhibits 50% of growth or viability of the tested material compared to a control.
Three cell lines obtained from ATCC and maintained as directed by ATCC were tested: HeLa (cervical adenocarcinoma), A549 (lung carcinoma), and COS-7 (SV40 transformed monkey kidney). Studies of these cell lines are considered to be indicative of the effect of tested substances on mammalian, including human, diseases.
All compounds were dissolved in DMSO and DMSO is used as the placebo. The samples were first dissolved into 10 mM dilutions in DMSO and then diluted further to 5, 1, 0.5, 0.1, 0.05, and 0.01 mM solutions. These solutions were added to the media at a 1% concentration (1 μl to 100 μl media) to treat the cells with 100, 50, 10, 5, 1, 0.5, and 0.1 μM of the compound. […] Solutions were checked before use for precipitation, especially the 10 mM solutions. If there was precipitation, they were warmed 65° C. and added to warmed media.
Wells on a 96-well plate were seeded with 1.5-8×10^4 cells in 100 μl media and incubated overnight. The outside wells of the plate were filled with 200 μl sterile, deionized (DI) water to curb media evaporation. After 24 hours, test chemicals were prepared in media at a concentration of 1% media volume. The test sample media were added, mixing with pipette before adding 100 μl per well. Media was added to the “Media Only” wells. The well plate and its contents were incubated for 24-72 hours, depending on the study conducted. On the thy of the MTS assay, the MTS reagent was removed from the refrigerator and brought to room temperature. Using the multichannel pipette, 20 μl of the MTS reagent was added to each well and incubated for one to four hours. The plate was read at 490 nm with a reference wavelength of 690 nm after one hour in the incubator thereafter until the blank wells were at about 0.2 OD. The results were then scanned into a Microsoft® Excel® template designed to perform all necessary calculations whim data are entered. The data were checked for statistical errors; data points that are within 10% of the mean of the data points for that group were included. The average of the blanks (“Media Only”) were subtracted and the data were inserted into a chart that represents growth response, treated/untreated.

Renal Cancer cell lines = assay: NCI DTP human tumor cell line screen, renal cancer panel; conditions: Renal Cancer (6 cell lines)
From the text: (§1) The United States National Cancer Institute (NCI) provides a developmental therapeutics program (DTP) (http://dtp.nci.nih.gov/branches/btb/ivelsp.html) to screen submitted substances in support of cancer drug discovery. The In Vitro Cell Line Screening Project (IVCLSP) is a dedicated service providing direct support to the DTP anticancer drug discovery program and is designed to screen up to 3,000 compounds per year for potential anticancer activity. The operation of this screen utilizes 60 different human tumor cell lines, representing leukemia, melanoma and cancers of the lung, colon, brain, ovary, breast, prostate, and kidney. The aim is to prioritize for farther evaluation, synthetic compounds or natural product samples showing selective growth inhibition or cell killing of particular tumor cell lines. This screen is unique in that the complexity of a 60 cell line dose response produced by a given compound results in a biological response pattern which can be utilized in pattern recognition algorithms (COMPARE program. See: http://dtp.nci.nih.gov/docs/compare/compare.html). Using these algorithms, it is possible to assign a putative mechanism of action to a test compound, or to determine that the response pattern is unique and not similar to that of any of the standard prototype compounds included in the NCI database. […]

Leukemia cell lines = assay: NCI DTP human tumor cell line screen, leukemia panel; conditions: Leukemia (6 cell lines)
From the text: as §1

[2] = tested on: Ovarian Cancer cell lines; assay: NCI DTP human tumor cell line screen, ovarian cancer panel; conditions: Ovarian Cancer (6 cell lines)
From the text: as §1

C[C@H](Cc1ccc(OCCCN2CCCCC2)c(OCCCN2CCCCC2)c1)[C@@H](C)Cc1ccc(OCCCN2CCCCC2)c(OCCCN2CCCCC2)c1 [Compound A, 1,4-bis{3,4-bis[3-(piperidin-1-yl)propoxy]phenyl}-2,3-dimethyl-(2R,3S)-butane]
pIC50 [1]: 5.52 to 5.70 | Mean Growth Percent at 10 μM (Renal Cancer cell lines): −95.54% | Mean Growth Percent at 10 μM (Leukemia cell lines): −81.93% | Mean Growth Percent at 10 μM [2]: −85.89%
